Here are results for one compound from patent US8153821B2, “Compounds” (priority 2008, dated 2012).

Test [1] deals with T1, rat native α4β2 receptors (Rattus norvegicus, UniProt P09483+P12390).
T1 construct: rat native α4β2 receptors in rat cortical membranes; from tissue; host or cells: rat cerebral cortex (female Sprague-Dawley)
The test can be described thus: Radioligand binding, rat native α4β2 in rat cortical membranes. As for the experimental part:
Preparation of membranes from rat cortex: Rats (female, Sprague-Dawley), weighing 150-250 g, were maintained on a 12 h light/dark cycle and were allowed free access to water and food supplied by PMI Nutrition International, Inc. Animals were anesthetized with 70% CO2, and then decapitated. Brains were removed and placed on an ice-cold platform. The cerebral cortex was removed and placed in 20 volumes (weight:volume) of ice-cold preparative buffer (137 mM NaCl, 10.7 mM KCl, 5.8 mM KH2PO4, 8 mM Na2HPO4, 20 mM HEPES (free acid), 5 mM iodoacetamide, 1.6 mM EDTA, pH 7.4); PMSF, dissolved in methanol to a final concentration of 100 μM, was added and the suspension was homogenized by Polytron. […]
Assay. […] Protein concentrations were determined using a Pierce BCA Protein Assay Kit, with bovine serum albumin as the standard (Pierce Chemical Company, Rockford, Ill.).
Incubation was terminated by rapid filtration on a multi-manifold tissue harvester (Brandel, Gaithersburg, Md.) using GF/B filters presoaked in 0.33% polyethyleneimine (w/v) to reduce non-specific binding. […] Filters were then counted to determine radioactivity bound to the membranes by liquid scintillation counting (2200CA Tri-Carb LSC, Packard Instruments, 50% efficiency or Wallac Trilux 1450 MicroBeta, 40% efficiency, Perkin Elmer).
Data were expressed as disintegrations per minute (DPMs). […]

The target in test [2] is T2, human native muscle-type nicotinic receptors (likely α1β1γδ) (Homo sapiens, UniProt P02708+P07510+Q07001).
T2 construct: human native muscle-type nicotinic receptors (likely α1β1γδ); endogenous in cells; host or cells: TE-671 (TE671/RD)
T2 sequence (P07510 23-517): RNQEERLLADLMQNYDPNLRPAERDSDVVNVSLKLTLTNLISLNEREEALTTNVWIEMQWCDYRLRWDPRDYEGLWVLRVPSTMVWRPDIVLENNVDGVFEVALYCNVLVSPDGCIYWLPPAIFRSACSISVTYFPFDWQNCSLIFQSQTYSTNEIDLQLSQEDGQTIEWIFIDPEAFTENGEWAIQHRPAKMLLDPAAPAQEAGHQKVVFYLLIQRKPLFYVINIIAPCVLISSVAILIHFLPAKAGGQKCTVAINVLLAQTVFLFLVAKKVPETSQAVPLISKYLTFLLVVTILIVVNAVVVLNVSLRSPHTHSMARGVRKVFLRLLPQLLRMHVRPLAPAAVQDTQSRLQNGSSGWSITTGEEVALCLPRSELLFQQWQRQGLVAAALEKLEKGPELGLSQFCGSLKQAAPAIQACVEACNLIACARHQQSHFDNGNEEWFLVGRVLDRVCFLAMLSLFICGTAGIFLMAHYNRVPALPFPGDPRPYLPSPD
T2 sequence (Q07001 22-517): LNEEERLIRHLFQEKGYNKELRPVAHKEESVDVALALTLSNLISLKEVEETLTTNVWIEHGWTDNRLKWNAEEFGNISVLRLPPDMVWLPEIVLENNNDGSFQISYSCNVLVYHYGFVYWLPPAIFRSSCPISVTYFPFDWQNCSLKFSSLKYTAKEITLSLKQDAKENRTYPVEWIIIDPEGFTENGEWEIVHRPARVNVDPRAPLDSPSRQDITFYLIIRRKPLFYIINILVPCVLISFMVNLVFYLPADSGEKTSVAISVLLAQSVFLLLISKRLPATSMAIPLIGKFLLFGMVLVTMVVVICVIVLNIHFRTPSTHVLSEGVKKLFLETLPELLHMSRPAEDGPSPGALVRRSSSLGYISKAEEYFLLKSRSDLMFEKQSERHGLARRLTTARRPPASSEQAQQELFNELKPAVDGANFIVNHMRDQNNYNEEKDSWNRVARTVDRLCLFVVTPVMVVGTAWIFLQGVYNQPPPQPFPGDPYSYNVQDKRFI
T2 sequence (P02708 21-457): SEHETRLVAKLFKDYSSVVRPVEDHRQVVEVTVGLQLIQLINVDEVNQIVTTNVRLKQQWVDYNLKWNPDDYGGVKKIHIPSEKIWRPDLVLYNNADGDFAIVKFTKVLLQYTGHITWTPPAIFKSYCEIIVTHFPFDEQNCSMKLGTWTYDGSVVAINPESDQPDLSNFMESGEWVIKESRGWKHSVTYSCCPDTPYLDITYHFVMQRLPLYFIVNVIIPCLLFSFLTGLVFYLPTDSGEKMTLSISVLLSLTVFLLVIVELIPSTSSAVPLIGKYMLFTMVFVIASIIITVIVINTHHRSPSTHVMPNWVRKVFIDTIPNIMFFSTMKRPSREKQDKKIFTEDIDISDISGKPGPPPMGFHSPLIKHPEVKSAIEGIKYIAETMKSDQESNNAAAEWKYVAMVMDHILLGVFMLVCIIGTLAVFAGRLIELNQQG
T2 sequence (P11230 24-501, further chain): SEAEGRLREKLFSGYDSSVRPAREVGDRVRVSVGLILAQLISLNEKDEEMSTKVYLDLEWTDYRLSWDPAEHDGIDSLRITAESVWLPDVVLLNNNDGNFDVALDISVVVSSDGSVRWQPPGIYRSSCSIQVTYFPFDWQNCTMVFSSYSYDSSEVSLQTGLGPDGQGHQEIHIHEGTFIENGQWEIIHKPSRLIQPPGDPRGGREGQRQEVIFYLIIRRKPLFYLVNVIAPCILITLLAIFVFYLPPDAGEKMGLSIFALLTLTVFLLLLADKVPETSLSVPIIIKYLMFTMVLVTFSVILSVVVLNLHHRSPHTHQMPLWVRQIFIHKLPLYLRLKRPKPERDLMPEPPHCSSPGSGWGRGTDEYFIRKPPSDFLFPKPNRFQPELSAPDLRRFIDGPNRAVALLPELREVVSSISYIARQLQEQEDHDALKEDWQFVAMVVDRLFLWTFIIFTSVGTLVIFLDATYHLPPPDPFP
Put plainly: [3H]epibatidine binding, TE-671 membranes.

T1 sequence (P09483 31-630): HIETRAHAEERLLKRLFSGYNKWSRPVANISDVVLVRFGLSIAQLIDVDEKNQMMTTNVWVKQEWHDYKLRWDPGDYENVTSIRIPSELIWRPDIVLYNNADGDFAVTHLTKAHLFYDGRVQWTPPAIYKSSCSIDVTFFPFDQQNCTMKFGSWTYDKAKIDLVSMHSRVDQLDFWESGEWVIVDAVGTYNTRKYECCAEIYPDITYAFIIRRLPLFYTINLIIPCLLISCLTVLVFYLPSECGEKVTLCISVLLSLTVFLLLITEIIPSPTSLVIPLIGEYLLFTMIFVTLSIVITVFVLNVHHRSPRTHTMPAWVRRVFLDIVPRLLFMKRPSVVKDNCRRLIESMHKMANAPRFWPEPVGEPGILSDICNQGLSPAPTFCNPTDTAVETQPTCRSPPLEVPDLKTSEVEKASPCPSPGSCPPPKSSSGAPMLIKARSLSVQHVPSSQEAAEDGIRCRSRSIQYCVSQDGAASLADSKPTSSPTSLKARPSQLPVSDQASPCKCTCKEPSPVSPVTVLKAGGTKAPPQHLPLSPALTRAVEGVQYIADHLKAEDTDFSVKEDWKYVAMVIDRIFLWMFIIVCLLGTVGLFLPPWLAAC
T1 sequence (P12390 25-500): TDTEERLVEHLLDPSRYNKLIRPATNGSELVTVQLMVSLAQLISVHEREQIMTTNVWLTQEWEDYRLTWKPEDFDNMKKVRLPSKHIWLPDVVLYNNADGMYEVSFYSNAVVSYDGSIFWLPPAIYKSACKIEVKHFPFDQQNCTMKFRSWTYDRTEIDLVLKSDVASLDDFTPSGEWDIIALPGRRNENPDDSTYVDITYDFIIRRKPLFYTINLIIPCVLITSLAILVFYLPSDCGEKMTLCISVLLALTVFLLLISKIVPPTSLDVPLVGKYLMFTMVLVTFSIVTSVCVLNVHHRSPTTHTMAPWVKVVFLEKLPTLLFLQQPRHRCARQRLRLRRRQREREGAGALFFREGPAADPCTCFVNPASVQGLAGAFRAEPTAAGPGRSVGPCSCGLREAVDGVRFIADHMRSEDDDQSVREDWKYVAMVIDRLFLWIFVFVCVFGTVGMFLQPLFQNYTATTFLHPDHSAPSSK

With `C(=C\[C@H]1CCNC1)/c1cncc(OC2CCOCC2)c1` [Compound A, (R)-3-((E)-2-(pyrrolidin-3-yl)vinyl)-5-(tetrahydropyran-4-yloxy)pyridine], the inhibitory constant (Ki) turned out to be 0.004 µM in test [1] and 25 µM in test [2].

Usually Ki stands for the equilibrium dissociation constant of an inhibitor or competing ligand from its target. High values mean a looser hold on the target, low ones a stronger hold on the target.
